Legend:
Format in all cases: functional, cell-based
[1] = tested on: MCF7; assay: Cytotoxicity against human MCF7 cells after 48 hrs by sulforhodamine B assay; conditions: MCF7, 48 h
[2] = tested on: HepG2; assay: Cytotoxicity against human HepG2 cells after 48 hrs by sulforhodamine B assay; conditions: HepG2, 48 h
[3] = tested on: HCT-116; assay: Cytotoxicity against human HCT116 cells after 48 hrs by sulforhodamine B assay; conditions: HCT-116, 48 h

Question: How did the IC50 [1] turn out when `N#C/C(C(=O)Nc1ccccc1)=c1/s/c(=C\c2ccccc2)c(=O)n1-c1ccccc1` was run?
Answer: 75.3 µM

Question: What about the IC50 [2] of the same molecule?
Answer: 11 µM

Question: What about the IC50 [3] of the same molecule?
Answer: 33.3 µM

Question: Which IC50 [1] does the source give for `COc1ccc(/C=c2\s/c(=C(/C#N)C(=O)Nc3ccccc3)n(-c3ccccc3)c2=O)cc1` here?
Answer: 7.89 µM

Question: What about the IC50 [2] of the same molecule?
Answer: 30.4 µM

Question: And the IC50 [3]?
Answer: 6.61 µM

Question: For `N#C/C(C(=O)Nc1ccccc1)=c1/s/c(=C\c2ccccc2O)c(=O)n1-c1ccccc1`, which IC50 [1] is on record?
Answer: 8.85 µM

Question: And the IC50 [2]?
Answer: 83 µM

Question: And the IC50 [3]?
Answer: 7.8 µM

Question: Which IC50 [1] does the source give for `Cc1ccc(NC(=O)/C(C#N)=c2\s/c(=C\c3ccccc3)c(=O)n2-c2ccccc2)cc1` here?
Answer: 55.5 µM

Question: And the IC50 [2]?
Answer: 38.2 µM

Question: What about the IC50 [3] of the same molecule?
Answer: 11 µM

Question: Which IC50 [1] does the source give for `COc1ccc(/C=c2\s/c(=C(/C#N)C(=O)Nc3ccc(C)cc3)n(-c3ccccc3)c2=O)cc1` here?
Answer: > 107 µM

Question: What about the IC50 [2] of the same molecule?
Answer: 37.4 µM

Question: What about the IC50 [3] of the same molecule?
Answer: 9.95 µM

Question: How did the IC50 [1] turn out when `Cc1ccc(NC(=O)/C(C#N)=c2\s/c(=C\c3ccc(Cl)cc3)c(=O)n2-c2ccccc2)cc1` was run?
Answer: 28.6 µM

Question: What about the IC50 [2] of the same molecule?
Answer: 48.3 µM

Question: What about the IC50 [3] of the same molecule?
Answer: 28.4 µM

Question: `Cc1ccc(NC(=O)/C(C#N)=c2\s/c(=C\c3ccccc3O)c(=O)n2-c2ccccc2)cc1` was tested. Which IC50 [1] did it give?
Answer: > 110 µM

Question: What about the IC50 [2] of the same molecule?
Answer: 8.25 µM

Question: And the IC50 [3]?
Answer: 6.92 µM

Question: Which IC50 [1] does the source give for `N#C/C(C(=O)Nc1ccc(Cl)cc1)=c1/s/c(=C\c2ccccc2)c(=O)n1-c1ccccc1` here?
Answer: 77.5 µM

Question: What about the IC50 [2] of the same molecule?
Answer: 49.1 µM

Question: What about the IC50 [3] of the same molecule?
Answer: 38.9 µM

Question: Which results are given for `N#C/C(C(=O)Nc1ccc(Cl)cc1)=c1/s/c(=C\c2ccc(Cl)cc2)c(=O)n1-c1ccccc1`?
Answer: IC50 [1]: > 102 µM; IC50 [2]: > 102 µM; IC50 [3]: 9.15 µM

Question: How did the IC50 [1] turn out when `N#C/C(C(=O)Nc1ccc(Cl)cc1)=c1/s/c(=C\c2ccccc2O)c(=O)n1-c1ccccc1` was run?
Answer: 7.89 µM

Question: What about the IC50 [2] of the same molecule?
Answer: 12.4 µM

Question: What about the IC50 [3] of the same molecule?
Answer: 6.92 µM

Question: How did the IC50 [2] turn out when `N#C/C(C(=O)Nc1ccccc1)=C1/S/C(=N\Nc2ccccc2)C(=O)N1c1ccccc1` was run?
Answer: 18.8 µM

Question: And the IC50 [3]?
Answer: > 114 µM

Question: How did the IC50 [1] turn out when `COc1ccc(N/N=C2\S/C(=C(/C#N)C(=O)Nc3ccccc3)N(c3ccccc3)C2=O)cc1` was run?
Answer: 17.6 µM

Question: What about the IC50 [3] of the same molecule?
Answer: 46.4 µM

Question: With `Cc1ccc(NC(=O)/C(C#N)=C2\S/C(=N\Nc3ccccc3)C(=O)N2c2ccccc2)cc1` as the molecule, how does the IC50 [2] read?
Answer: 24.2 µM

Question: What about the IC50 [3] of the same molecule?
Answer: > 110 µM

Question: How did the IC50 [2] turn out when `COc1ccc(N/N=C2\S/C(=C(/C#N)C(=O)Nc3ccc(C)cc3)N(c3ccccc3)C2=O)cc1` was run?
Answer: 34.1 µM

Question: And the IC50 [3]?
Answer: > 103 µM

Question: With `Cc1ccc(NC(=O)/C(C#N)=C2\S/C(=N\Nc3ccc(Cl)cc3)C(=O)N2c2ccccc2)cc1` as the molecule, how does the IC50 [1] read?
Answer: > 102 µM

Question: And the IC50 [3]?
Answer: 14.9 µM

Question: `COc1cccc2c1C(=O)c1c(O)c3c(c(O)c1C2=O)C[C@@](O)(C(=O)CO)C[C@@H]3O[C@H]1C[C@H](N)[C@H](O)[C@H](C)O1` [DOXORUBICIN] was tested. Which IC50 [2] did it give?
Answer: 7.36 µM

Question: What about the IC50 [3] of the same molecule?
Answer: 6.86 µM

Source: ChEMBL document CHEMBL1926637, “Stereoselective synthesis and QSAR study of cytotoxic 2-(4-oxo-thiazolidin-2-ylidene)-2-cyano-N-arylacetamides” (Eur J Med Chem, 2012)
